Data from patent US6555570B2, “Compounds with growth hormone releasing properties” (Novo Nordisk A/S, priority 1995, dated 2003).
Structures can show the parent of a compound that is named as a salt.

melting point: 138 to 145 °C
SMILES: CN(C(=O)[C@@H](Cc1ccc2ccccc2c1)N(C)C(=O)/C=C/CC(C)(C)N)[C@@H](CNC(=S)NC1CC1)Cc1ccccc1 (as salt: trifluoroacetic acid salt)
